In brackets after ≈: the same amount, converted by molar mass. Several values for one entry are separate records, joined by “and”; a condition that tells them apart may be missing. Equal values may be shown once. Entries after “also recorded” stand apart in the source; their conditions may differ.
What was measured:
[1] = system: Hepatitis B virus; test: Effect of alkyl lipids on HBV replication in HBV persistently infected human HEP G2 cells (Table 6); type: cell-based; settings: for Intracellular HBV DNA, Mono (episomal 3.2-3.8 Kb HBV genomes) / Intracellular HBV DNA, RI (replication intermediates): nine days
How it was run: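 Persistently HBV-infected HepG2 cells exposed to compound for nine days at 37 °C, intracellular HBV DNA analysed 24 h after day nine. Episomal 3.2-3.8 Kb genomes and replication intermediates normalized to integrated HBV DNA; virion DNA detection cut-off 0.1 pg DNA/ml culture medium.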

[2] = Cytotoxicity in HBV persistently infected human HEP G2 cells, neutral red dye uptake (Table 5); type: cell-based; settings: human, hep-g2 cells, % of Control Neutral Red Dye Uptake
How it was run: (§1)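 HBV-transfected HEP-G2 monolayers in RPMI-1640 were given compound at four serial concentrations in triplicate for nine days at 37 °C, with periodic medium replacement. Toxicity from 0.01% neutral red uptake (A510), as percent of nine untreated control wells on the same plate.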

[3] = system: HEP G2 cells persistently infected with HBV; test: as above; type: cell-based
How it was run: as §1

[4] = Cytotoxicity of alkyl lipids, neutral red dye uptake (Table 1); type: cell-based; settings: human, hep-g2 cells
Source text: Initially, evaluations of the alkyl lipids were done to determine whether the compounds were cytotoxic to the cells at concentrations having anti-HBV activity. The assay methodology is szt forth in Korba and Germ, Antiviral Res., 19, 55-70 (1992), incorporated by reference herein. Briefly, these cell cytotoxicity evaluations were done in 96-well plates seeded with HEP-G2 cell monolayers. The hepatoblastoma cell line HEP-G2 transfected with a plasmid carrying the gene that confers resistance to […] and four 5'-3' tandem copies of the Hepatitis B virus genome was obtained from Dr. George Acs. Proc. Natl. Acad. Sci. USA, 84, 1005-1009 (1987). Serial concentrations of compound were added to the RPMI-1640 growth medium and the growth medium was added to the 96-well plates containing the cell monolayers. The cells were incubated for a total of nine days at 37° C. The compound-containing medium was periodically replaced. Each compound was tested at four serial concentrations in triplicate. After nine days of treatment and incubation, 0.01% neutral red dye (Sigma, Inc.) was added to the overlay medium. Cell cytotoxicity was quantitated by measuring the average A510. Values in Table 1 represent the percentage of average A510 values (±standard deviation) relative to nine non-treated control wells.

[5] = system: Hepatitis B virus; test: Anti-hepatitis B virus activity in HEP-G2 cells persistently infected with HBV (Table 2); type: cell-based; settings: for activity at 10 µM: Hepatitis B virus, HepG2, 216 h
Description: HEP-G2 cells persistently infected with HBV were treated daily with fresh D-MEM containing 20% FBS and 10 μM compound. After 9 days incubation and treatment, the overlay medium was harvested to assay the quantity of Hepatitis B virus s antigen (HBsAg) and HBeAg by EIA (Abbott Laboratories). The overlay medium was diluted to levels of antigen in the linear range of the assay. Standard curves using dilutions of positive HBsAg and HBeAg controls were included in each assay. Virion DNA was assayed using the method set forth in Korba and Gerin, Antiviral Res., 19, 5,5-70 (1992), incorporated by reference herein. HBV DNA was extracted from the overlay medium containing virus particles and analyzed by a slot-blot hybridization technique using ^32 P-labelled 3.2 Kb Eco R1 HBV DNA fragment by comparisons to HBV standards present on nitrocellulose filters using an AMBIS beta scanner. EC90 values (90% effective concentration, i.e., drug concentration which induces a 90% decrease in the levels of HBV DNA replication intermediates in treated versus control cells) were calculated by linear regression analysis. The relative levels of HBsAg, HBeAg and virion DNA were calulated as a percentage of the average levels obtained from the untreated controls.

[6] = system: Hepatitis B virus; test: Effect on synthesis of antigen markers in persistently infected human HEP G2 cell cultures (Table 7); type: cell-based; settings: for activity at 10 µM: Hepatitis B virus, HepG2, 216 h
How it was run: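 Persistently infected HepG2 cells treated with compound for nine days at 37° C. Culture medium then harvested: HBsAg and HBeAg quantified by EIA, virion DNA by hybridisation-based DNA measurement. Sensitivity cut-off 0.1 pg DNA/ml medium.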

[7] = system: granulocyte/macrophage (CFU-GM); test: Cytotoxicity: inhibition of mouse granulocyte/macrophage (CFU-GM) colony formation; type: cell-based; settings: read-out: inhibitory concentration 50% for colony formation (IC50)
Description: CP-51 and AZT were assayed for cytotoxicity by inhibition of mouse precursor erythrocyte (CFU-E) and granulocyte/macrophage (CFU-GM) cell colony formation. Mouse bone marrow precursor cells were suspended in soft-agar-RPMI-1640 medium supplmented with cell growth factors and serial concentrations of alkyl lipid.

[8] = system: Friend-Leukemia virus; test: Inhibition of retrovirus-induced splenomegaly in Friend-Leukemia virus infected mice (Table 9); type: in vivo
Description: Mice were infected I.P. with Friend-Leukemia virus and not treated or treated I.P. with daily doses of phospholipid. After 14 days infection and treatment, the mice were sacrificed, the spleens were removed and weighed to determine the percentage, of control splenomegaly. […] Even a single dose of 25 mg/kg CP-51 inhibited splenomegaly by 36%.

[9] = system: mouse precursor erythrocyte (CFU-E); test: Cytotoxicity: inhibition of mouse precursor erythrocyte (CFU-E) colony formation; type: cell-based; settings: Mus musculus, Erythrocyte, read-out: inhibitory concentration 50% for colony formation (IC50)
Description: CP-51 and AZT were assayed for cytotoxicity by inhibition of mouse precursor erythrocyte (CFU-E) and granulocyte/macrophage (CFU-GM) cell colony formation.

CCCCCCCCCCCCCCCC(=O)NCC(COP(=O)([O-])OCC[N+](C)(C)C)OCC (racemic) [CP-49, rac-3-hexadecanamido-2-ethoxy-1-propylphosphocholine]
HBV Virion DNA ([1]; 0.1 μM, Day 0): 71 pg/ml Culture Medium and 55 pg/ml Culture Medium and 72 pg/ml Culture Medium and 62 pg/ml Culture Medium | HBV Virion DNA ([1]; 0.1 μM, Day 3): 72 pg/ml Culture Medium and 56 pg/ml Culture Medium and 88 pg/ml Culture Medium and 75 pg/ml Culture Medium | HBV Virion DNA ([1]; 0.1 μM, Day 6): 62 pg/ml Culture Medium and 69 pg/ml Culture Medium and 55 pg/ml Culture Medium | HBV Virion DNA ([1]; 0.1 μM, Day 9): 75 pg/ml Culture Medium and 65 pg/ml Culture Medium and 77 pg/ml Culture Medium and 57 pg/ml Culture Medium | Intracellular HBV DNA, Mono (episomal 3.2-3.8 Kb HBV genomes) ([1]; 0.1 μM): 2.2 pg/μg Cell DNA and 2.3 pg/μg Cell DNA and 2.5 pg/μg Cell DNA and 2.6 pg/μg Cell DNA | Intracellular HBV DNA, RI (replication intermediates) ([1]; 0.1 μM): 60 pg/μg Cell DNA and 61 pg/μg Cell DNA and 74 pg/μg Cell DNA and 79 pg/μg Cell DNA | HBV Virion DNA ([1]; 1 μM, Day 0): 56 pg/ml Culture Medium and 51 pg/ml Culture Medium and 66 pg/ml Culture Medium and 79 pg/ml Culture Medium | HBV Virion DNA ([1]; 1 μM, Day 3): 56 pg/ml Culture Medium and 58 pg/ml Culture Medium and 60 pg/ml Culture Medium and 68 pg/ml Culture Medium | HBV Virion DNA ([1]; 1 μM, Day 6): 38 pg/ml Culture Medium and 41 pg/ml Culture Medium and 43 pg/ml Culture Medium and 44 pg/ml Culture Medium | HBV Virion DNA ([1]; 1 μM, Day 9): 10 pg/ml Culture Medium and 13 pg/ml Culture Medium and 11 pg/ml Culture Medium and 18 pg/ml Culture Medium | Intracellular HBV DNA, Mono (episomal 3.2-3.8 Kb HBV genomes) ([1]; 1 μM): 2.3 pg/μg Cell DNA and 2.4 pg/μg Cell DNA and 2.2 pg/μg Cell DNA and 2.1 pg/μg Cell DNA | Intracellular HBV DNA, RI (replication intermediates) ([1]; 1 μM): 24 pg/μg Cell DNA and 20 pg/μg Cell DNA and 25 pg/μg Cell DNA and 30 pg/μg Cell DNA | HBV Virion DNA ([1]; 10 μM, Day 0): 73 pg/ml Culture Medium and 53 pg/ml Culture Medium and 56 pg/ml Culture Medium and 77 pg/ml Culture Medium | HBV Virion DNA ([1]; 10 μM, Day 3): 49 pg/ml Culture Medium and 55 pg/ml Culture Medium and 57 pg/ml Culture Medium and 50 pg/ml Culture Medium | HBV Virion DNA ([1]; 10 μM, Day 6): 21 pg/ml Culture Medium and 22 pg/ml Culture Medium and 19 pg/ml Culture Medium and 24 pg/ml Culture Medium | Intracellular HBV DNA, Mono (episomal 3.2-3.8 Kb HBV genomes) ([1]; 10 μM): 2.6 pg/μg Cell DNA and 2.4 pg/μg Cell DNA and 2.2 pg/μg Cell DNA and 2.7 pg/μg Cell DNA | Intracellular HBV DNA, RI (replication intermediates) ([1]; 10 μM): 9 pg/μg Cell DNA and 8 pg/μg Cell DNA and 6 pg/μg Cell DNA | inhibition of HBV virion DNA and intracellular HBV RI DNA levels ([1]; in words, versus ddC): markedly inhibited; also recorded: substantially inhibited | viability at 216 h, 3 µM [2]: 99 ± 3% | viability at 216 h, 10 µM [2]: 97 ± 2% | viability at 216 h, 100 µM [2]: 45 ± 4% | Cell toxicity (greater than 50% depression of dye uptake) ([3]; at concentrations with strong or moderate antiviral activity): did not occur | % of Control Neutral Red Dye Uptake ([3]; human, hep-g2 cells, 216 h, 100 µM): 29 ± 1 % of Control | viability at 216 h, 3 µM ([4]; 3 μM, nine days, read-out: % of Control Neutral Red Dye Uptake): 99 ± 3% | viability at 216 h, 10 µM ([4]; 10 μM, nine days, read-out: % of Control Neutral Red Dye Uptake): 99 ± 4% | viability at 216 h, 30 µM ([4]; 30 μM, nine days, read-out: % of Control Neutral Red Dye Uptake): 60 ± 4% | cytotoxicity at 216 h, 30 µM ([4]; 30 μM, read-out: inhibition of neutral red dye uptake): 40% | viability at 216 h, 100 µM ([4]; 100 μM, nine days, read-out: % of Control Neutral Red Dye Uptake): 29 ± 1% | activity against HBV-induced virion DNA and HBeAg syntheses ([5]; 10 μM, in words): potent inhibitory activity | activity at 10 µM ([5]; read-out: Relative Level of HBeAg): 30% | activity at 10 µM ([5]; read-out: Relative Level of HBsAg): 115% | activity at 10 µM ([5]; read-out: Relative Level of Virion DNA): 1% | Relative Level of HBeAg ([6]; 10 μM, nine days, 12960 min): 26 % of Untreated Control | Relative Level of HBsAg ([6]; 10 μM, nine days, 12960 min): 113 % of Untreated Control | Relative Level of Virion DNA ([6]; 10 μM, nine days, 12960 min): 1 % of Untreated Control | activity at 10 µM ([6]; read-out: Relative Level of HBeAg, 10 μM, nine days): 33% | activity at 10 µM ([6]; read-out: Relative Level of HBsAg, 10 μM, nine days): 116% | activity at 10 µM ([6]; read-out: Relative Level of Virion DNA, 10 μM, nine days): 1% | effect on HBsAg levels released into the culture medium ([6]; in words): None of the compounds tested | reduction in HBeAg and virion DNA levels ([6]; in words): caused a reduction; also recorded: most active compounds in suppressing HBeAg and virion DNA levels

Cc1cn([C@H]2C[C@H](N=[N+]=[N-])[C@@H](CO)O2)c(=O)[nH]c1=O [AZT, 3'-azido-3'deoxythymidine, reference compound]
IC50 [7]: 0.27 µg/mL (≈ 1.01 µM) | inhibition of retrovirus-induced splenomegaly ([8]; 12.5 mg/kg/day intraperitoneally): 10% | % of Control Splenomegaly ([8]; 12.5 mg/kg/day, daily treatment): 10 % of Control | IC50 [9]: 0.43 µg/mL (≈ 1.61 µM)

From patent US6030960A, “Method of treating hepatitis virus infections” (priority 1998, dated 2000)
